Results from US11564924B2, “Pharmaceutical composition formed by combining pyridoxamine compound and thiamine compound” (RENASCIENCE CO., LTD., priority 2014, dated 2023).

Experiments:
[1] = system: Wernicke's encephalopathy; test: Wernicke's encephalopathy findings (MRI of the brain, symptoms) during drug administration; assay type: in vivo, human
Procedure: Immediately after the patient was suspected of having Wernicke's encephalopathy, oral administration of a thiamine compound (fursultiamine (Takeda Pharmaceutical Company Limited)) at a dose of 75 mg/day was initiated (administered once a day) and continued every day.
Immediately after the patient was suspected of having Wernicke's encephalopathy, intravenous administration of a thiamine compound (fursultiamine (Takeda Pharmaceutical Company Limited)) (300 mg/day) was performed, and then (from 10 weeks after the start of drug administration), oral administration of the thiamine compound at a dose of 100 to 50 mg/day was continued.

[2] = system: vitamin B1; test: Whole blood vitamin B1 amount in schizophrenia patients during drug administration (LC/MS/MS); assay type: in vivo, human
Procedure: Measurement of the amount of vitamin B1 in whole blood (blood collection with heparin) was outsourced to SRL Inc., and the measurement was performed using LC/MS/MS.

[3] = system: vitamin B1 in human whole blood; test: In vitro effect on vitamin B1 concentration in human whole blood; conditions: human whole blood, 5, 50, 500 μg/mL, 37° C.
Text: In addition, as described in Experiment Example 1 and Experiment Example 2, administration of a pyridoxamine compound increases not only the serum pyridoxamine concentration, but also the serum pyridoxal concentration, and thus, pyridoxamine and pyridoxal were both used as test substances for the investigation.
Blood was collected from a human using EDTA⋅2K as an anticoagulant. In addition, pyridoxamine dihydrochloride (Sigma-Aldrich Japan) was used as pyridoxamine, and pyridoxal hydrochloride (Nacalai Tesque, Inc.) was used as pyridoxal. They were dissolved at 0.5, 5, and 50 mg/mL in physiological saline to prepare test solutions. 10 μL of each test solution was individually added per mL of the whole blood collected above (test samples). The final concentrations of each test substance in the test samples were 5, 50, 500 μg/mL. Further, a vehicle was prepared by adding 10 μl of physiological saline to 1 ml of the whole blood. The vehicle and the test samples were incubated at 37° C. for 1 hour or 16 hours and then immediately frozen. Measurement of the vitamin B1 concentrations in the whole blood before the start of the incubation to which neither the physiological saline nor any test solution was added (baseline: indicated by “BL” in FIG. 4), and in the vehicle and in each test sample after the incubation, was outsourced to SRL Inc., and the measurement was performed using LC/MS/MS.

CC(=C(CCO)SSCC1CCCO1)N(C=O)Cc1cnc(C)nc1N (stereo in doubt) [fursultiamine]
symptom of Wernicke's encephalopathy ([1]; patient ID No. 3, 14 weeks after the start of drug administration (8 weeks after the start of the thiamine compound, 75 mg/day oral)): disappeared
symptom of Wernicke's encephalopathy ([1]; patient ID No. 6, 11 weeks after the start of drug administration (3 weeks after the start of the thiamine compound)): disappeared
whole blood vitamin B1 amount ([2]; patient ID No. 3, 12 weeks after the start of drug administration (6 weeks after start of fursultiamine 75 mg/day oral), pyridoxamine compound continued): 135 ng/mL
whole blood vitamin B1 amount ([2]; patient ID No. 6, 11 weeks after the start of drug administration (3 weeks after start of thiamine compound: 300 mg/day intravenous, then 100 to 50 mg/day oral)): 150 ng/mL

Cc1ncc(CO)c(C=O)c1O.Cl [pyridoxal hydrochloride]
change in whole blood vitamin B1 concentration ([3]; 1 hour incubation): decrease in the vitamin B1 concentration in a manner dependent on the concentration of pyridoxal hydrochloride
change in whole blood vitamin B1 concentration ([3]; 16 hours incubation): decrease in the vitamin B1 concentration in a manner dependent on the concentration of pyridoxal hydrochloride
